Results as given in patent US8883841B2, “Oncogenic ras-specific cytotoxic compound and methods of use thereof” (The Board of Regents of the University of Texas System, priority 2005, dated 2014).

Experiments:
[1] = test system: H460 cells; assay: cells; settings: Homo sapiens, NCI-H460, read-out: IC50 (−LogM), H460, Lung (converted)
[2] = test system: U251; assay: NCI in-vitro testing, U251 (CNS Cancer)
[3] = test system: HT29; assay: NCI in-vitro testing, HT29 (Colon Cancer)
[4] = test system: SF-295; assay: NCI in-vitro testing, SF-295 (CNS Cancer)
[5] = test system: A498; assay: NCI in-vitro testing, A498 (Renal Cancer)
[6] = test system: SK-MEL-28; assay: NCI in-vitro testing, SK-MEL-28 (Melanoma)
[7] = test system: SN12C; assay: NCI in-vitro testing, SN12C (Renal Cancer)
[8] = test system: TK-10; assay: NCI in-vitro testing, TK-10 (Renal Cancer)
[9] = test system: T-47D; assay: NCI in-vitro testing, T-47D (Breast Cancer)
[10] = test system: BT-549; assay: NCI in-vitro testing, BT-549 (Breast Cancer)
[11] = test system: COLO 205; assay: NCI in-vitro testing, COLO 205 (Colon Cancer)
[12] = test system: OVCAR-4; assay: NCI in-vitro testing, OVCAR-4 (Ovarian Cancer)
[13] = In vivo toxicity assay in tumor-bearing nude mice
[14] = test system: EKVX; assay: NCI in-vitro testing, EKVX (Non-Small Cell Lung Cancer)
[15] = test system: NCI-H460; assay: NCI in-vitro testing, NCI-H460 (Non-Small Cell Lung Cancer)

O=Cc1cn(Cc2cccc(Cl)c2)c2ccccc12 [Oncrasin K027, 1-(3-chlorobenzyl)-1H-indole-3-carbaldehyde]
IC50 [1]: 0.00398 µM
GI50 ([2]; Homo sapiens, U-251): 2.46 µM
CC50 ([2]; Homo sapiens, U-251, read-out: LC50): > 100 µM
TGI ([2]; U251): 2.53E−5 Molar
Percent Growth ([2]; U251, Log10 Concentration −4.0 Molar): −35%
Percent Growth ([2]; U251, Log10 Concentration −5.0 Molar): 25%
Percent Growth ([2]; U251, Log10 Concentration −6.0 Molar): 56%
Percent Growth ([2]; U251, Log10 Concentration −7.0 Molar): 84%
Percent Growth ([2]; U251, Log10 Concentration −8.0 Molar): 93%
TGI ([3]; HT29): 2.01E−6 Molar
Percent Growth ([3]; HT29, Log10 Concentration −4.0 Molar): −66%
Percent Growth ([3]; HT29, Log10 Concentration −5.0 Molar): 29%
Percent Growth ([3]; HT29, Log10 Concentration −6.0 Molar): 68%
Percent Growth ([3]; HT29, Log10 Concentration −7.0 Molar): 79%
Percent Growth ([3]; HT29, Log10 Concentration −8.0 Molar): 103%
GI50 ([3]; Homo sapiens, HT-29): 0.00183 µM
CC50 ([3]; Homo sapiens, HT-29, read-out: LC50): 6.76 µM
GI50 ([4]; Homo sapiens, SF-295): 1.43 µM
CC50 ([4]; Homo sapiens, SF-295, read-out: LC50): > 100 µM
TGI ([4]; SF-295): 3.52E−5 Molar
Percent Growth ([4]; SF-295, Log10 Concentration −4.0 Molar): −15%
Percent Growth ([4]; SF-295, Log10 Concentration −5.0 Molar): 18%
Percent Growth ([4]; SF-295, Log10 Concentration −6.0 Molar): 56%
Percent Growth ([4]; SF-295, Log10 Concentration −7.0 Molar): 80%
Percent Growth ([4]; SF-295, Log10 Concentration −8.0 Molar): 104%
TGI ([5]; A498): 3.33E−8 Molar
Percent Growth ([5]; A498, Log10 Concentration −4.0 Molar): −94%
Percent Growth ([5]; A498, Log10 Concentration −5.0 Molar): −95%
Percent Growth ([5]; A498, Log10 Concentration −6.0 Molar): −87%
Percent Growth ([5]; A498, Log10 Concentration −7.0 Molar): −66%
Percent Growth ([5]; A498, Log10 Concentration −8.0 Molar): 61%
GI50 ([5]; Homo sapiens, A498): 0.0124 µM
CC50 ([5]; Homo sapiens, A498, read-out: LC50): 0.089 µM
GI50 ([6]; Homo sapiens, SK-MEL-28): 18 µM
CC50 ([6]; Homo sapiens, SK-MEL-28, read-out: LC50): > 100 µM
TGI ([6]; SK-MEL-28): 4.44E−6 Molar
Percent Growth ([6]; SK-MEL-28, Log10 Concentration −4.0 Molar): −45%
Percent Growth ([6]; SK-MEL-28, Log10 Concentration −5.0 Molar): 82%
Percent Growth ([6]; SK-MEL-28, Log10 Concentration −6.0 Molar): 93%
Percent Growth ([6]; SK-MEL-28, Log10 Concentration −7.0 Molar): 93%
Percent Growth ([6]; SK-MEL-28, Log10 Concentration −8.0 Molar): 83%
TGI [7]: 1.94E−5 Molar
GI50 ([7]; Homo sapiens): 3.56 µM
CC50 ([7]; Homo sapiens, read-out: LC50): 67.2 µM
Percent Growth ([7]; Log10 Concentration −4.0 Molar): −66%
Percent Growth ([7]; Log10 Concentration −5.0 Molar): 27%
Percent Growth ([7]; Log10 Concentration −6.0 Molar): 79%
Percent Growth ([7]; Log10 Concentration −7.0 Molar): 93%
Percent Growth ([7]; Log10 Concentration −8.0 Molar): 97%
GI50 ([8]; Homo sapiens, TK-10): 0.0153 µM
CC50 ([8]; Homo sapiens, TK-10, read-out: LC50): > 100 µM
TGI ([8]; TK-10): 8.84E−8 Molar
Percent Growth ([8]; TK-10, Log10 Concentration −4.0 Molar): −16%
Percent Growth ([8]; TK-10, Log10 Concentration −5.0 Molar): −8%
Percent Growth ([8]; TK-10, Log10 Concentration −6.0 Molar): −10%
Percent Growth ([8]; TK-10, Log10 Concentration −7.0 Molar): −3%
Percent Growth ([8]; TK-10, Log10 Concentration −8.0 Molar): 62%
GI50 ([9]; Homo sapiens, T47D): 0.0267 µM
CC50 ([9]; Homo sapiens, T47D, read-out: LC50): > 100 µM
TGI ([9]; T-47D): 4.23E−7 Molar
Percent Growth ([9]; T-47D, Log10 Concentration −4.0 Molar): −14%
Percent Growth ([9]; T-47D, Log10 Concentration −5.0 Molar): −16%
Percent Growth ([9]; T-47D, Log10 Concentration −6.0 Molar): −12%
Percent Growth ([9]; T-47D, Log10 Concentration −7.0 Molar): 20%
Percent Growth ([9]; T-47D, Log10 Concentration −8.0 Molar): 73%
TGI ([10]; BT-549): 1.73E−5 Molar
Percent Growth ([10]; BT-549, Log10 Concentration −4.0 Molar): −85%
Percent Growth ([10]; BT-549, Log10 Concentration −5.0 Molar): 28%
Percent Growth ([10]; BT-549, Log10 Concentration −6.0 Molar): 97%
Percent Growth ([10]; BT-549, Log10 Concentration −7.0 Molar): 116%
Percent Growth ([10]; BT-549, Log10 Concentration −8.0 Molar): 110%
GI50 ([10]; Homo sapiens, BT-549): 4.82 µM
CC50 ([10]; Homo sapiens, BT-549, read-out: LC50): 488 µM
TGI ([11]; COLO 205): 1.58E−5 Molar
Percent Growth ([11]; COLO 205, Log10 Concentration −4.0 Molar): −72%
Percent Growth ([11]; COLO 205, Log10 Concentration −5.0 Molar): 18%
Percent Growth ([11]; COLO 205, Log10 Concentration −6.0 Molar): 51%
Percent Growth ([11]; COLO 205, Log10 Concentration −7.0 Molar): 93%
Percent Growth ([11]; COLO 205, Log10 Concentration −8.0 Molar): 88%
GI50 ([11]; Homo sapiens, COLO 205): 1.05 µM
CC50 ([11]; Homo sapiens, COLO 205, read-out: LC50): 5.69 µM
GI50 ([12]; Homo sapiens, OVCAR-4): 0.34 µM
CC50 ([12]; Homo sapiens, OVCAR-4, read-out: LC50): > 100 µM
TGI ([12]; OVCAR-4): 1.80E−5 Molar
Percent Growth ([12]; OVCAR-4, Log10 Concentration −4.0 Molar): −29%
Percent Growth ([12]; OVCAR-4, Log10 Concentration −5.0 Molar): 10%
Percent Growth ([12]; OVCAR-4, Log10 Concentration −6.0 Molar): 31%
Percent Growth ([12]; OVCAR-4, Log10 Concentration −7.0 Molar): 71%
Percent Growth ([12]; OVCAR-4, Log10 Concentration −8.0 Molar): 94%
serum ALT, AST, and creatinine levels ([13]; 2 days after the last treatment): within the normal range
histopathologic examination of organs ([13]; lung, heart, stomach, small intestine, liver, spleen, pancreas, kidney): no significant lesions
blood cell counts ([13]; red blood cells, white blood cells, platelets): all in the normal ranges
body weights ([13]; vs solvent): No difference
TGI [14]: 6.47E−5 Molar
GI50 ([14]; Homo sapiens): 21 µM
CC50 ([14]; Homo sapiens, read-out: LC50): > 100 µM
Percent Growth ([14]; Log10 Concentration −4.0 Molar): −22%
Percent Growth ([14]; Log10 Concentration −5.0 Molar): 94%
Percent Growth ([14]; Log10 Concentration −6.0 Molar): 107%
Percent Growth ([14]; Log10 Concentration −7.0 Molar): 105%
Percent Growth ([14]; Log10 Concentration −8.0 Molar): 103%
TGI [15]: 3.79E−5 Molar
GI50 ([15]; Homo sapiens, NCI-H460): 0.0888 µM
CC50 ([15]; Homo sapiens, NCI-H460, read-out: LC50): > 100 µM
Percent Growth ([15]; Log10 Concentration −4.0 Molar): −9%
Percent Growth ([15]; Log10 Concentration −5.0 Molar): 13%
Percent Growth ([15]; Log10 Concentration −6.0 Molar): 20%
Percent Growth ([15]; Log10 Concentration −7.0 Molar): 48%
Percent Growth ([15]; Log10 Concentration −8.0 Molar): 79%
